Laboratory results reported in ChEMBL document CHEMBL3272088, “Stereochemical studies of adrenergic drugs. Diastereomeric 2-amino-1-phenylcyclobutanols” (1976).
Active and inactive are the calls of the source. The calls are words filed in the database; no cut-off is given here.

Legend:
Vas deferens [1] = assay: Intrinsic activity of (-)-norepinephrine-induced tissue contraction in albino Sprague-Dawley rat reserpine-treated adrenergically innervated vas deferens after 15 mins by isotonic myograph analysis; format: functional, tissue-based
[2] = Potentiation of (-)-norepinephrine-induced tissue contraction in albino Sprague-Dawley rat reserpine-treated adrenergically innervated vas deferens at 3 x 10^-4 M after 15 mins by isotonic myograph analysis; format: functional
Rattus norvegicus [3] = species on record: Rattus norvegicus; assay: Potentiation of (-)-norepinephrine-induced tissue contraction in albino Sprague-Dawley rat reserpine-treated adrenergically innervated vas deferens after 15 mins by isotonic myograph analysis; format: functional, tissue-based
[4] = Induction of tissue contraction in albino Sprague-Dawley rat reserpine-treated adrenergically innervated vas deferens at 3 x 10^-7 M by isotonic myograph analysis; format: functional
Vas deferens [5] = assay: Intrinsic activity of (-)-norepinephrine-induced tissue contraction in albino Sprague-Dawley rat reserpine-treated adrenergically innervated vas deferens at 1 x 10^-5 to 3 x 10^-5 M after 15 mins by isotonic myograph analysis; format: functional, tissue-based
[6] = Potentiation of (-)-norepinephrine-induced tissue contraction in albino Sprague-Dawley rat reserpine-treated adrenergically innervated vas deferens at 3 x 10^-6 M after 15 mins by isotonic myograph analysis; format: functional
Vas deferens [7] = assay: Intrinsic activity of (-)-norepinephrine-induced tissue contraction in albino Sprague-Dawley rat reserpine-treated adrenergically innervated vas deferens at 3 x 10^-6 M after 15 mins by isotonic myograph analysis; format: functional
Rattus norvegicus [8] = species on record: Rattus norvegicus; assay: Potentiation of (-)-norepinephrine-induced tissue contraction in albino Sprague-Dawley rat reserpine-treated adrenergically innervated vas deferens at 3 x 10^-5 to 3 x 10^-4 M after 15 mins by isotonic myograph analysis; format: functional, tissue-based

**Q.** For `N[C@@H]1CC[C@@]1(O)c1ccccc1`, which Activity (Vas deferens [1]) is on record?
**A.** inactive

**Q.** What about the Activity [2] of the same compound?
**A.** 55%

**Q.** And the Activity (Rattus norvegicus [3])?
**A.** Dose-dependent effect

**Q.** With `NCC(O)c1ccc(O)c(O)c1` (centres undefined) as the compound, how does the Activity [4] read?
**A.** 10%

**Q.** For `CC(N)C(O)c1ccccc1` (centres undefined) [PHENYLPROPANOLAMINE], which Activity (Vas deferens [5]) is on record?
**A.** Active

**Q.** And the Activity [6]?
**A.** 66%

**Q.** And the Activity (Vas deferens [7])?
**A.** <5%

**Q.** With `N[C@@H]1CC[C@]1(O)c1ccccc1` as the compound, how does the Activity (Vas deferens [1]) read?
**A.** inactive

**Q.** What about the Activity (Rattus norvegicus [8]) of the same compound?
**A.** inactive
